4 compounds from patent publication EP1433789A1, “Pyrrolopyrazines and their use as selective apoptosis inducers” (Aponetics AG, priority 2002, dated 2004) can be followed below.

What all share (format): cell-based, human
Experiment [1] concerns Jurkat. The experiment can be described thus: PI staining for cell cycle distribution. The following applies: Jurkat 3 uM, 24 h. Details: key: 0 indicates no occurrence at all; 1 for weak; 2 for strong occurrence. How it is done: (§1) 1 - 2*10^5 cells are seeded into 24 well tissue culture plates and incubated for 24 h prior to compound addition. Compounds are added for 24 h in a final concentration of 3 µM or 10 µM. Adherent cells are harvested by trypsinization. The cell suspensions are fixed by adding 2 parts ice cold ethanol 100% while vortexing. Then the samples are stored for > 2 h at-20°C. Subsequently the cells are washed with PBS once and resuspended in 250 µl PBS containing 50 µg/ml PI (Calbiochem # 537059), then the samples are incubated at 37°C for 30 minutes and subsequently analyzed on a FACSCalibur™ monitoring linear PI fluorescence activity on FL2.. The readout allows the detection of a possible direct or indirect influence of the tested compounds on the cell cycle. The following events can occur: a) Generation of a subG1 peak indicative for DNA fragmentation, b) increase of the cell population arrested in G2M phase. Both events are scored by 1 for weak and 2 for strong occurrence. 0 indicates no occurrence at all. […]

Experiment [2] has as its system HeLa. The experiment is described as follows: PI staining for cell cycle distribution. The arrangement: key: 0 indicates no occurrence at all; 1 for weak; 2 for strong occurrence. The note with it: HeLa 10 µM, 24 h. How it is done: as §1
Experiment [3] deals with Jurkat. The experiment can be described thus: BrdU incorporation (proliferation). The note with it: 48 h. The arrangement: key: 0 for no activity; 1 for a moderate inhibition; 2 for strong inhibition of proliferation. The protocol: (§2) Adherent cells are seeded out at 2 - 4*10^4 cells/well/ml in 24 well tissue culture plates 24 h prior to treatment. Suspension cells are seeded out at 2*10^5 cells/ml/well in 24 well plates. Compounds are added leading to final concentrations of 3 µM and 10 µM, respectively. Subsequently, BrdU (Molecular Probes #B-23151) at 10 µM final concentration is added and the plates are incubated for 48 h. After the incubation cells are processed according to standard procedures. The detection of the incorporated BrdU is done with the anti-bromodeoxyuridine Mab PRB-1, Alexa Fluor 660 conjugate (Molecular Probes #A-21306). The analysis is performed on a FACSCalibur™ by monitoring the fluorescence activity on FL3. The readout reflects DNA synthesis which is a hallmark for proliferation. The scores are defined the following: 0 for no activity, 1 for a moderate inhibition and 2 for strong inhibition of proliferation. Table 7 indicates inhibitory activities of several tested compounds on proliferation.

In experiment [4] the test system is HeLa. The experiment can be described thus: BrdU incorporation (proliferation). The arrangement: key: 0 for no activity; 1 for a moderate inhibition; 2 for strong inhibition of proliferation. The following applies: 48 h. How it is done:
as §2
A general note: Incorporation of labelled thymidine or its analogues reports DNA synthesis.

In the next experiment the test system is Ramos. The experiment can be described thus: Hoechst 33342 nuclear staining (Table 3). Details: key: 0 relating to no activity; 1 relating to weak activity comprising less than 50% of the cells; score 2 relating to strong activity comprising more than 50% of the cells. The procedure, abridged:
(§3)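 Adherent cells (3-5×10^3, pre-spread 24 h) or suspension cells (8-10×10^3) treated with compounds at 10, 3, 1 and 0.3 µM for 24 or 48 h, then Hoechst 33342 stained for 30 min. Apoptotic nuclear morphology scored by fluorescence microscopy: 0 none, 1 weak (<50% cells), 2 strong (>50% cells).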

In the next experiment the test system is HBL 100. The experiment can be described thus: Hoechst 33342 nuclear staining (Table 3). Details: key: 0 relating to no activity; 1 relating to weak activity comprising less than 50% of the cells; score 2 relating to strong activity comprising more than 50% of the cells. The procedure, abridged: as §3
The subject of a further experiment is HT 1080. The experiment is described as follows: Hoechst 33342 nuclear staining (Table 3). Details: key: 0 relating to no activity; 1 relating to weak activity comprising less than 50% of the cells; score 2 relating to strong activity comprising more than 50% of the cells. The procedure, abridged:
as §3

Regarding `COc1cc2c(cc1OC)-c1c(Cl)c3nc4ccccc4nc3n1C(C)C2` (stereo not drawn) [compound 12], the “G2M (increase of the cell population arrested in G2M phase)” value in the experiment with Jurkat [1] and in the experiment with HeLa [2] was 0 in each case. Besides, the “subG1 (generation of a subG1 peak indicative for DNA fragmentation)” value (“subG1” below) in the experiment on Jurkat [1] and in the experiment with HeLa [2] was 0 throughout. Moreover, the “BrdU incorporation (inhibition of proliferation)” value in the experiment on Jurkat [3] (3uM) is recorded as 2; in the experiment with Jurkat [3] (10uM), 2; in the experiment on HeLa [4] (3uM), 1; in the experiment with HeLa [4] (10uM) it was 1.
`CCC1Cc2cc(OC)c(OC)cc2-c2cc3nc4ccccc4nc3n21` (stereo not drawn) [compound 13]: the “G2M (increase of the cell population arrested in G2M phase)” value in the experiment with Jurkat [1] and in the experiment with HeLa [2] was 0 each time. The “subG1” value in the experiment on Jurkat [1] and in the experiment with HeLa [2] was 0 throughout. Further, the “BrdU incorporation (inhibition of proliferation)” value in the experiment on Jurkat [3] (3uM) was determined as 2; with Jurkat [3] (10uM) it was 2; in the experiment with HeLa [4] (3uM) it was 1.
In the case of `COc1cc2c(cc1OC)-c1c(Br)c3nc4ccccc4nc3n1C(C)C2` (stereo not drawn) [compound 10], the “Hoechst 33342 nuclear staining” value with Ramos (24h, conc 0.3 (µM)) is reported as 0; in the experiment on Ramos (24h, conc 1 (µM)) it was 0; with Ramos (24h, conc 3 (µM)), 0; in the experiment with Ramos (24h, conc 10 (µM)) it was 2 (score 2 relating to strong activity comprising more than 50% of the cells); in the experiment on Ramos (48h, conc 0.3 (µM)), 0; in the experiment on Ramos (48h, conc 1 (µM)) it was 2 (score 2 relating to strong activity comprising more than 50% of the cells). Besides, the “Hoechst 33342 nuclear staining” value was 2 (score 2 relating to strong activity comprising more than 50% of the cells) with Ramos (48h, conc 3 (µM)) and 2 (score 2 relating to strong activity comprising more than 50% of the cells) with Ramos (48h, conc 10 (µM)). The “Hoechst 33342 nuclear staining (fraction of apoptotic nuclei), score” value in the experiment with HBL 100 (HBL 100, 24h, 0.3 µM) was 1 (1 relating to weak activity comprising less than 50% of the cells); in the experiment on HBL 100 (HBL 100, 24h, 1 µM), 2 (score 2 relating to strong activity comprising more than 50% of the cells); with HBL 100 (HBL 100, 24h, 3 µM) it was 2 (score 2 relating to strong activity comprising more than 50% of the cells); in the experiment on HBL 100 (HBL 100, 24h, 10 µM) it was 2 (score 2 relating to strong activity comprising more than 50% of the cells); in the experiment on HBL 100 (HBL 100, 48h, 0.3 µM) it was 2 (score 2 relating to strong activity comprising more than 50% of the cells); with HBL 100 (HBL 100, 48h, 1 µM), 2 (score 2 relating to strong activity comprising more than 50% of the cells). The “Hoechst 33342 nuclear staining (fraction of apoptotic nuclei), score” value is given as 2 (score 2 relating to strong activity comprising more than 50% of the cells) with HBL 100 (HBL 100, 48h, 3 µM); 2 (score 2 relating to strong activity comprising more than 50% of the cells) in the experiment with HBL 100 (HBL 100, 48h, 10 µM); 0 with HT 1080 (HT 1080, 24h, 0.3 µM); 1 (1 relating to weak activity comprising less than 50% of the cells) in the experiment with HT 1080 (HT 1080, 24h, 1 µM); 2 (score 2 relating to strong activity comprising more than 50% of the cells) with HT 1080 (HT 1080, 24h, 3 µM); 2 (score 2 relating to strong activity comprising more than 50% of the cells) in the experiment with HT 1080 (HT 1080, 24h, 10 µM). In addition, the “Hoechst 33342 nuclear staining (fraction of apoptotic nuclei), score” value with HT 1080 (HT 1080, 48h, 0.3 µM) is on record as 0; with HT 1080 (HT 1080, 48h, 1 µM) it was 2 (score 2 relating to strong activity comprising more than 50% of the cells); in the experiment on HT 1080 (HT 1080, 48h, 3 µM), 2 (score 2 relating to strong activity comprising more than 50% of the cells); in the experiment with HT 1080 (HT 1080, 48h, 10 µM), 2 (score 2 relating to strong activity comprising more than 50% of the cells). Also, the “G2M (increase of the cell population arrested in G2M phase)” value in the experiment with Jurkat [1] and with HeLa [2] was 0 in each case. Further, the “subG1” value in the experiment with Jurkat [1] and in the experiment with HeLa [2] was 0 in each case. For the same compound, the “BrdU incorporation (inhibition of proliferation)” value with Jurkat [3] (3uM) was found to be 2; with Jurkat [3] (10uM), 1; with HeLa [4] (3uM), 0; in the experiment with HeLa [4] (10uM), 0.
On to `CC1Cc2ccccc2-c2c(Cl)c3nc4ccccc4nc3n21` (stereo not drawn) [compound 11], for which the “G2M (increase of the cell population arrested in G2M phase)” value in the experiment on Jurkat [1] and in the experiment on HeLa [2] was 0 each time. The “subG1” value with Jurkat [1] and with HeLa [2] was 0 throughout. Also, the “BrdU incorporation (inhibition of proliferation)” value is given as 0 in the experiment on Jurkat [3] (3uM), 2 in the experiment with Jurkat [3] (10uM) and 1 in the experiment with HeLa [4] (3uM).
